{"source": "patent US20250213614A1", "about": "“Modified RELA Protein for Inducing Interferon Expression and Engineered Immune Cells with Improved Interferon Expression” (Institut Curie, priority 2022, published 2025)", "molecules": {"B1": {"name": "IRF3: interferon Regulatory Factor 3, over-expressed from lentivector (protein, UniProt Q14653 1-427, looked up)", "Interferon regulatory factor 3": "MGTPKPRILPWLVSQLDLGQLEGVAWVNKSRTRFRIPWKHGLRQDAQQEDFGIFQAWAEATGAYVPGRDKPDLPTWKRNFRSALNRKEGLRLAEDRSKDPHDPHKIYEFVNSGVGDFSQPDTSPDTNGGGSTSDTQEDILDELLGNMVLAPLPDPGPPSLAVAPEPCPQPLRSPSLDNPTPFPNLGPSENPLKRLLVPGEEWEFEVTAFYRGRQVFQQTISCPEGLRLVGSEVGDRTLPGWPVTLPDPGMSLTDRGVMSYVRHVLSCLGGGLALWRAGQWLWAQRLGHCHTYWAVSEELLPNSGHGPDGEVPKDKEGGVFDLGPFIVDLITFTEGSGRSPRYALWFCVGESWPQDQPWTKRLVMVKVVPTCLRALVEMARVGGASSLENTVDLHISNSHPLSLTSDQYKAYLQDLVEGMDFQGPGES"}}, "key": {"cGAS": {"system": "cGAS", "experiment": "cGAS localization by confocal microscopy in CD4+ T cells", "format": "cell-based, human", "conditions": "activated CD4+ T cells overexpressing IRF3 or RELA K5R, FIG. 5D, 5E", "method": "4 to 5 days following transduction, 500,000 cells were plated on 0.1% poly-L lysine in water (Sigma #8920) coated coverslips and left for 30 minutes to attach. Cells were fixed in PBS 4% paraformaldehyde for 20 minutes at room temperature (RT). Coverslips were washed twice in PBS and quenched with 500 μl of freshly prepared PBS Glycine (375 mg Glycine in 50 mL of PBS) for 10 minutes at room temperature. […] Coverslips were incubated with primary antibody against cGAS (clone D1 D3G) or isotype control (clone DA1E) at a concentration of 0.085 μg/ml in PBS 0.2% BSA 0.05% saponin and left overnight at 4° C. in a moist chamber. Coverslips were washed 5 times with PBS 0.2% BSA 0.05% saponin and incubated in secondary antibody goat anti-Rabbit IgG at 1:400 (Invitrogen #A21246) for 45 minutes at RT. Coverslips were washed 5 times with PBS 0.2% BSA 0.05% saponin, rinsed in water and mounted on a glass slide using 10 μl fluoromount-G with DAPI (Invitrogen #00-4959-520). Glass slides were allowed to dry in a 37° C. chamber for 30 minutes and stored at 4° C. Images were acquired on a Leica Dml8 inverted microscope equipped with an SP8 confocal unit using a 40× (1.3 NA) oil objective. Image analysis was performed using Fiji software^77. […] Average cGAS and GFP intensities were measured in the whole cell, the nuclei and the cytosol (defined by the whole cell excluding the nuclear region)."}, "CD4+ T cells": {"system": "CD4+ T cells", "experiment": "IFN-I/III quantification (LEGENDplex) in CD4+ T cells, baseline or after STING stimulation", "format": "cell-based, human", "method": "Plasmapheresis blood pockets were obtained from healthy adult volunteers after informed consent from the EFS (Establishment of French blood collection). Peripheral blood mononuclear cells (PBMCs) were isolated using Ficoll-Paque Plus (GE-17144003) and left overnight at 4° C. in RPMI (Thermo fischer #61870-010) with 10% heat-decomplemented fetal bovine serum (FBS, Eurobio #CVFSVFO0-01). CD14+ cells were enriched by positive selection (Miltenyi #130-050-201), the CD14 negative fraction was subsequently used to isolate total CD4+ T cells by negative selection (Stem Cell #17952). CD14+ cells were cultured in RPMI containing 10% FBS, 5% Penicillin-Streptomycin (PS, Thermo Fisher #10378-016), 50 μg/ml Gentamicin (Thermo Fisher #15750-045) and 10 mM HEPES (Thermo Fisher #15630-056). CD14+ cells were differentiated ex vivo into MDDC by supplementing the culture media with 50 ng/ml IL-4 (Miltenyi #130-093-922) and 10 ng/ml GM-CSF (Miltenyi #130-093-867). MDDC were used for experiments 3 or 4 days following the start of the culture. CD14+ cells were differentiated ex vivo into macrophages by adding 50 ng/ml MCSF (Miltenyi #130-096-492) to the culture media containing RPMI with 1% PS, 5% FBS and 5% human serum (Sigma #H4522). MDM were used 7 days following culture. Freshly isolated CD4+ T cells were cultured in X-VIVO 15 (Lonza #BE02-060F) and activated using anti-CD3 and anti-CD28 Dynabeads (fisher scientific #10548353) at the ratio of 1:5 (bead:cell). 100 U/ml human IL-2 (Immunotools #11340027) was added to cultures 2 days following TCR stimulation and media with IL-2 was replenished every 48 hours. To assess proliferation, freshly isolated CD4+ T cells were stained with cell proliferation dye (thermo fischer #65-0840-85) prior to TCR stimulation.\nCD14+ cells were plated at 1 million cells/ml and transduced with equal volumes of freshly harvested SIV-VLPs and pTRIP-SFFV vectors in the presence of 8 μg/ml protamine (Sigma #P4020). CD4+ T cells were transduced with lentivectors 24 hours post-TCR stimulation in 100 μl of cells (0.2 million cells) and 100 μl of freshly harvested lentivirus in the presence of 8 μg/ml protamine. T cells were spinoculated at 1200 g for 2 hours at 25° C. 0.5 million THP-1 cells in 500 μl media (RPMI 10% FBS 1% PS) were transduced with 500 μl freshly harvested lentivirus in the presence of 8 μg/ml protamine. 1 μg/ml Puromycin (Invivogen #ant-pr-1) was added 2 days post-transduction when cells were transduced with pLKO.1-puro plasmid.\nFor stimulation of STING by extracellular ligands, 2.5 μg of ADUS100 (invivogen #tlrl-nacda2r-01) or 2′3′-cGAMP (cGAMP, invivogen #tlrl-nacga23-02) was added to 100,000 cells in 100 μl media either on freshly isolated primary cells or 3-4 days post differentiation for MDDC and 3 days post-TCR stimulation for CD4+ T cells. Cells and supernatant were harvested 18-24 hours post stimulation. For delivery of STING ligands after permeabilization, T cells were used 3 or 4 days post TCR stimulation and MDDC were used 3-4 days following differentiation. 150,000 cells were plated in round bottom 96-well plate. Media was removed by centrifugation and 20 μl 2× permeabilization buffer (100 mM HEPES, 200 mM KCl, 6 mM MgCl2, 0.2 mM DTT, 170 mM Sucrose, 2 mM ATP, 2 mM GTP, 0.4% bovine serum albumin (BSA), 20 μg/ml digitonin) and 20 μl cGAMP (12 μg/ml) was added to cells. 18 to 20 hours following stimulation supernatants and cells were harvested. Cells were stained with a fixable viability dye (Invitrogen #65-0865-14) and acquired on a FACSVerse (BD). […]\nWhere indicated, cells were treated with 5-Azacytidine (5AZA, Sigma #A2385) 48 hours prior to cGAMP stimulation. Fresh 5AZA was added daily to cells, and media was replenished with 5AZA following cGAMP stimulation. 100 nM Trichostatin A (TSA) (sigma #T1952) was added to cells following cGAMP stimulation and left overnight. […]"}}, "data": [{"molecule": "RELA K5R: RELA mutant converting five lysine residues (K122, K123, K310, K314, K315) to arginine, expressed from lentivector", "values": [{"measurement": "cGAS localization (predominantly nuclear)", "setting": "cGAS", "result": "remained unchanged"}, {"measurement": "expression of IFNλ1 and IRF7", "setting": "CD4+ T cells; RELA K5R expressed in CD4+ T cells, no stimulation", "result": "sufficient to induce"}, {"measurement": "IFNλ1 after cGAMP stimulation", "setting": "CD4+ T cells; lentivector overexpression in CD4+ T cells, FIG. 2B, 2D, 2F", "result": "augmented in response to cGAMP"}, {"measurement": "IFNα2 in response to cGAMP", "setting": "CD4+ T cells; lentivector overexpression in CD4+ T cells, FIG. 2D, 2F", "result": "detectable"}, {"measurement": "baseline IFNλ1 expression", "setting": "CD4+ T cells; lentivector overexpression in CD4+ T cells, no cGAMP, FIG. 2D, 2F", "result": "increased baseline IFNλ1 expression"}]}, {"molecule": "B1", "values": [{"measurement": "cGAS localization (predominantly nuclear)", "setting": "cGAS", "result": "remained unchanged"}, {"measurement": "IFNα2 response to cGAMP", "setting": "CD4+ T cells; IRF3 over-expression alone in CD4+ T cells, FIG. 3B", "result": "only to a small extent"}, {"measurement": "IFNβ", "setting": "CD4+ T cells; IRF3 over-expression alone in CD4+ T cells, cGAMP, FIG. 3B", "result": "remained undetectable"}]}]}
